# According to publication PMC7738508, “A therapeutic combination of two small molecule toxin inhibitors provides broad preclinical efficacy against viper snakebite” (Nature Communications, 2020):
# Where “and” joins values, the source holds several entries; their conditions need not be identical. Equal values may be shown once. Read-outs that look alike come from different tables or passages of the source.
# Tests used:
# [1] = tested on: SVMP bioactivity of the four active venoms (E. ocellatus, E. carinatus, B. asper, B. arietans); test: in vitro kinetic fluorogenic SVMP assay, viper venoms overall; assay type: biochemical
# Method: (§1) The SVMP assay measuring metalloproteinase activity and the plasma assay measuring coagulation in the presence or absence of venoms and inhibitors were performed as previously described. The SVMP assay kinetically measured cleavage of a quenched fluorogenic substrate (ES010, R&D Biosystems) by venom in the presence or absence of inhibitors.
# (§2) Briefly, 10 µl of the substrate (supplied as a 6.2 mM stock) was used per 5 ml reaction buffer (150 mM NaCl, 50 mM Tris-Cl pH 7.5). Reactions consisted of 10 µl of venom ± inhibitors in PBS and 90 µl of substrate. Venoms were used at 1 µg/reaction and final inhibitor concentrations ranged from 150 µM to 150 nM. Samples were preincubated for 30 min at 37 °C and pipetted in triplicate into 384-well plates (Greiner). Thereafter, data was collected on an Omega FLUOstar (BMG Labtech) instrument at an excitation wavelength of 320 nm and emission wavelength of 405 nm at 25 °C for 1 h. The areas under the curve (AUCs) in the 0–40 min interval were calculated for each sample using MARS data analysis software v3.31 (BMG Labtech); this time point was chosen as the time where all fluorescence curves had reached a plateau (maximum fluorescence). For comparing venom-only samples, the means of at least three independent experimental runs for each condition, expressed as AUCs (n ≥ 3), were plotted at each inhibitor concentration with standard error of the mean (SEM). To determine inhibitor efficacy, the AUCs for each of the samples that consisted of venom + inhibitors were transformed and expressed as percentages of the venom-only sample (where the venom was 100%). The negative control (PBS-only) was also expressed relative to the venom, and the variation in background was presented as an interval delineated by the lowest and highest values in the PBS-only samples across concentrations and inhibitors for a specific venom.
# [2] = tested on: procoagulant activity of viper venoms (citrated bovine plasma); test: plasma clotting assay, viper venoms overall; assay type: biochemical; details: range across all venoms; lower end of dimercaprol and marimastat ranges given as < 0.15; read-out: IC50, inhibition of procoagulant venom activity
# Method: (§3) We used a previously developed plasma clotting assay[35] to measure venom-induced coagulation. Briefly, 100 ng of each venom was incubated at 37 °C for 30 min in the presence or absence of inhibitors (150 µM to 150 nM final concentrations). The final reaction consisted of 10 µl venom ± inhibitors in PBS, 20 µl 20 mM CaCl2, and 20 µl citrated bovine plasma (VWR). The samples were pipetted in triplicate into 384-well plates, and absorbance monitored at 595 nm for 2 h at 25 °C on an Omega FLUOstar instrument. We calculated the maximum clotting velocity of each of the curves as per clot waveform analysis, by calculating the maximum of the first derivative. The means of at least three independent experimental runs for each condition were plotted at each inhibitor concentration with SEMs.
# [3] = tested on: procoagulant activity of Echis carinatus venom (citrated bovine plasma); test: plasma clotting assay; assay type: biochemical; parameters: key: max of first derivative of A595 clot curve (max clotting velocity); details: Echis carinatus venom 100 ng, independent repeats
# Method: as §3
# [4] = tested on: coagulopathic activity of Daboia russelii venom (citrated bovine plasma); test: plasma clotting assay; assay type: biochemical; parameters: key to maximum clotting velocity: max of first derivative of A595 clot curve (max clotting velocity); details: for maximum clotting velocity: Daboia russelii venom 100 ng, independent repeats
# Method: as §3
# water solubility = assay type: physicochemical
# [5] = tested on: Bitis arietans venom SVMP activity; test: fluorogenic SVMP assay; assay type: biochemical; details: independent repeats
# Method: as §1, §2
# [6] = tested on: Bothrops asper venom SVMP activity; test: fluorogenic SVMP assay; assay type: biochemical; details: independent repeats
# Method: as §1, §2
# [7] = tested on: Echis carinatus venom SVMP activity; test: fluorogenic SVMP assay; assay type: biochemical; details: independent repeats
# Method: as §1, §2
# [8] = tested on: Echis ocellatus venom SVMP activity; test: fluorogenic SVMP assay; assay type: biochemical; details: independent repeats
# Method: as §1, §2
# [9] = tested on: procoagulant activity of Bothrops asper venom (citrated bovine plasma); test: plasma clotting assay; assay type: biochemical; details: Bothrops asper venom 100 ng, independent repeats
# Method: as §3
# [10] = tested on: procoagulant activity of Echis ocellatus venom (citrated bovine plasma); test: plasma clotting assay; assay type: biochemical; details: Echis ocellatus venom 100 ng, independent repeats
# Method: as §3
# [11] = tested on: pro- and anticoagulant fractions of D. russelii venom; test: nanofractionation with plasma coagulation assay; assay type: biochemical, Daboia russelii; details: nanofractionated D. russelii venom; inhibitor 0.0064 to 20 µM
# Method: Fifty microlitres of venom solution (D. russelii; 1 mg/ml) was injected into a Shimadzu LC-2010 system with nanofractionation in parallel. Separation was performed on a Waters XBridge reversed-phase C18 column (250 × 4.6 mm^2 column with 3.5 μm pore-size) at 30 °C. The total flow rate of the mobile phase solution was 0.5 ml/min with eluent A (98% H2O, 2% acetonitrile [ACN], 0.1% formic acid [FA]) and eluent B (98% ACN, 2% H2O, 0.1% FA). Liquid chromatography gradients consisted of a linear increase of mobile phase B from 0 to 50% in 20 min, followed by a linear increase to 90% B in 4 min, then isocratic at 90% B for 5 min, after which the percentage of mobile phase B was decreased from 90 to 0% in 1 min, followed by 10 min at 0% B to re-equilibrate. The effluent was split in a 1:9 ratio of which the 10% fraction was sent to a Shimadzu SPD-M20A prominence diode array detector and the 90% fraction was directed to a nanofractionation collector which dispensed the fractions into transparent 384-well plates (F-bottom, rounded square well, polystyrene, without lid, clear, non-sterile; Greiner Bio One, Alphen aan den Rijn, The Netherlands) at a resolution of 6 s/well. The collector used was either a commercially available FractioMate^TM nanofractionator (SPARK-Holland & VU, Netherlands, Emmen & Amsterdam) controlled by FractioMator software v1.0 (Spark-Holland, The Netherlands, Emmen) or a modified Gilson 235P autosampler controlled by in-house written software Ariadne v1.8 (VU Amsterdam). The well plates with venom fractions were then dried overnight in a Christ Rotational Vacuum Concentrator (RVC 2 − 33 CD plus, Zalm en Kipp, Breukelen, The Netherlands) equipped with a cooling trap, and maintained at −80 °C during operation. The freeze-dried plates were then stored at −80 °C prior to bioassaying.
# The final assay concentrations of the inhibitors tested in the assay were 20, 4, 0.8, 0.16, 0.032, and 0.0064 µM. The plates were then incubated for 30 min at room temperature, and during this time bovine plasma (Sterile Filtered, Biowest, Nuaille, France) was defrosted in a water bath and centrifuged for 4 min at 805 × g prior to use. […] The plate was then read immediately for absorbance kinetically for 100 min at 595 nm at 25 °C using a Varioskan Flash Multimode Reader (Thermo Fisher Scientific, Ermelo, The Netherlands). The obtained results were normalized by dividing the slope measured in each well by the median of all slope values across the plate, and the processed coagulation chromatograms were plotted to visualize very fast coagulation, medium increased coagulation and anticoagulation, as previously described.
# E. ocellatus venom = test: in vivo preincubation model of envenoming (i.v.); parameters: species or system CD-1 mice
# Method: All animal experiments were conducted using protocols approved by the Animal Welfare and Ethical Review Boards of the Liverpool School of Tropical Medicine and the University of Liverpool, and performed in specific pathogen-free conditions under licensed approval (PPL #4003718 and #P5846F90) of the UK Home Office and in accordance with the Animal [Scientific Procedures] Act 1986 and institutional guidance on animal care. All experimental animals (18–20 g [4–5 weeks old], male, CD-1 mice, Charles River, UK) were housed in groups of five with environmental enrichment, water and food ad libitum and their health monitored daily during acclimatization. The experimental design was based upon 3R-refined WHO-recommended protocols[28],[41], with animals randomized and observers being blinded to the experimental condition. The median lethal doses (venom LD50) used for E. ocellatus (Nigeria), E. carinatus (India), B. asper (Costa Rica), D. russelii (Sri Lanka) and B. arietans (Nigeria) venoms were previously determined[25],[41],[44],[45].
# All experimental doses were prepared to a volume of 200 µl in PBS and incubated at 37 °C for 30 min prior to their intravenous injection via the tail vein. Animals were monitored for 6 h, and euthanized via rising concentrations of CO2 upon observation of previously defined humane end points that are predicators of lethality (e.g., seizure, pulmonary distress, paralysis, hemorrhage)[28]. Deaths, time of death, and survivors were recorded; where death/time of death actually represents the implementation of euthanasia based on defined humane end points.
# For all experimental animals described above, blood samples were collected via cardiac puncture immediately post-euthanasia. Plasma was separated by centrifugation at 400 × g for 10 min and stored at −80 °C. We assessed the levels of thrombin-antithrombin complexes (TAT) and soluble thrombomodulin using mouse ELISA Kits (ab137994 and ab209880, Abcam), following the manufacturer’s protocol. All available plasma samples (some were unobtainable via cardiac puncture due to extensive internal hemorrhage) were assessed if the time of death within the group varied, whereas three samples were randomly chosen if the time of death was the same (e.g., either very rapid death within 2 min, or survival until the end of the experiment [360 min or 24 h]). The resulting data was plotted as the median of duplicate measurements for each animal and is presented with standard deviations (SDs).
# [12] = cited from earlier work
smiles,measurement,setting,value
CNC(=O)[C@H](Cc1ccccc1)NC(=O)[C@H](CC(C)C)[C@H](CSc1cccs1)C(=O)NO [batimastat],neutralization of SVMP bioactivity,"[1]; four active venoms, marimastat 150 nM to 150 µM, batimastat […] and 150 nM",equivalent efficacy to marimastat
same,IC50,[2],< 150 nM
same,maximum clotting velocity,[3]; inhibitor 15 µM,0.03565 and 0.03449
same,maximum clotting velocity,[3]; inhibitor 150 µM,0.0287 and 0.02696 and 0.02803
same,effect on clotting after complete neutralization of SVMP activity,"[4]; D. russelii venom, high doses",revealed clear venom anticoagulant effects
same,maximum clotting velocity,[4]; inhibitor 15 µM,0.01373 and 0.01942 and 0.02131
same,water solubility (words),water solubility,water insolubility
same,water solubility (words),water solubility; listed as Batimastat,low water solubility
"OCC(S)CS (stereo not drawn) [dimercaprol, 2,3-dimercapto-1-propanol]",lowest concentration generally effective / required to fully inhibit SVMP activities,[1]; across the active venoms,1.5 µM
same,IC50,"[1]; range across the active venoms, read-out: IC50s, inhibition of venom SVMP activity",20 to 400 nM
same,"SVMP activity, percentage of the venom-only sample",[5]; inhibitor 15 µM,16.3406% and 15.4164% and 15.5101%
same,"SVMP activity, percentage of the venom-only sample",[5]; inhibitor 150 µM,15.3818% and 14.876% and 14.901%
same,"SVMP activity, percentage of the venom-only sample",[6]; inhibitor 15 µM,36.4776% and 36.4971% and 29.4073%
same,"SVMP activity, percentage of the venom-only sample",[6]; inhibitor 150 µM,26.9201% and 36.0411% and 27.8434%
same,"SVMP activity, percentage of the venom-only sample",[7]; inhibitor 15 µM,11.4563% and 14.5818% and 10.6976%
same,"SVMP activity, percentage of the venom-only sample",[7]; inhibitor 150 µM,11.223% and 13.9151% and 10.3819%
same,"SVMP activity, percentage of the venom-only sample",[8]; inhibitor 15 µM,17.6103% and 18.1155% and 16.6523%
same,"SVMP activity, percentage of the venom-only sample",[8]; inhibitor 150 µM,15.563% and 16.8718% and 16.6432%
same,IC50,[2],150 to 3700 nM
same,maximum clotting velocity,[9]; inhibitor 15 µM,0.02441 and 0.02559 and 0.02164
same,maximum clotting velocity,[9]; inhibitor 150 µM,0.02412 and 0.03441 and 0.03148
same,maximum clotting velocity,[10]; inhibitor 15 µM,0.031 and 0.039 and 0.025
same,maximum clotting velocity,[10]; inhibitor 150 µM,0.038 and 0.0465 and 0.041
same,maximum clotting velocity,[3]; inhibitor 15 µM,0.039 and 0.037 and 0.04491
same,maximum clotting velocity,[3]; inhibitor 150 µM,0.03967 and 0.03833 and 0.05167
same,maximum clotting velocity,[4]; inhibitor 15 µM,0.02868 and 0.02941 and 0.02393
same,maximum clotting velocity,[4]; inhibitor 150 µM,0.007941 and 0.0123
CCc1c(C(=O)C(N)=O)c2c(OCC(=O)O)cccc2n1Cc1ccccc1 [varespladib],maximum clotting velocity,[4]; inhibitor 15 µM,0.09594 and 0.09681 and 0.08696
same,maximum clotting velocity,[4]; inhibitor 150 µM,0.1113 and 0.1116 and 0.1203
same,inhibition of anticoagulant venom fractions,[11],effectively inhibited
same,inhibition of procoagulant venom fractions,[11],"some inhibitory effect against procoagulant venom toxins, but only at very high doses (20 µM)"
same,protection against venom-induced lethality,"E. ocellatus venom; 45 µg E. ocellatus venom preincubated with 60 µg of each drug, i.v., 6 h",failed to prevent lethality over the full experimental time course
same,"thrombin-antithrombin (TAT) levels, range in group","E. ocellatus venom; plasma after euthanasia, E. ocellatus venom + 60 µg of each drug, venom-only mean 1127.3, normal mice 10.2–15.9",472.7 to 649.9 ng/mL
same,water solubility (words),water solubility,water insolubility
same,tolerability,[12]; Phase 1 and 2,well tolerated
same,risk of major adverse cardiovascular events,"[12]; Phase 2B, same daily dose, >300 patients for >6 months",no greater risk of major adverse cardiovascular events
same,risk of myocardial infarction vs placebo,"[12]; Phase 3, acute coronary syndrome patients, 500 mg oral daily",greater risk of myocardial infarction than those receiving placebo
same,oral bioavailability,[12],good oral bioavailability
same,half-life,[12]; delivered by iv infusion,5 h
